Laboratory results from ChEMBL document CHEMBL2202954, “The effect of PLC-γ2 inhibitors on the growth of human tumour cells” (2012).

Experiments:
Format in all cases: functional
SF-268 = assay: Cytotoxicity against human SF268 cells assessed as cellular growth at 10 uM by SRB assay
KM12 = assay: Cytotoxicity against human KM12 cells assessed as cellular growth at 10 uM by SRB assay
HCT-15 = assay: Cytotoxicity against human HCT15 cells assessed as cellular growth at 10 uM by SRB assay
TK-10 = assay: Cytotoxicity against human TK10 cells assessed as cellular growth at 10 uM by SRB assay
SNB-19 = assay: Cytotoxicity against human SNB19 cells assessed as cellular growth at 10 uM by SRB assay
PC-3 = assay: Cytotoxicity against human PC3 cells assessed as cellular growth at 10 uM by SRB assay
[1] = Cytotoxicity against human NCI-ADR-RES cells assessed as cellular growth at 10 uM by SRB assay
RXF 393 = assay: Cytotoxicity against human RXF393 cells assessed as cellular growth at 10 uM by SRB assay
786-0 = assay: Cytotoxicity against human 786-0 cells assessed as cellular growth at 10 uM by SRB assay
HT-29 = assay: Cytotoxicity against human HT-29 cells assessed as cellular growth at 10 uM by SRB assay
NCI-H23 = assay: Cytotoxicity against human NCI-H23 cells assessed as cellular growth at 10 uM by SRB assay
NCI-H522 = assay: Cytotoxicity against human NCI-H522 cells assessed as cellular growth at 10 uM by SRB assay
HOP-62 = assay: Cytotoxicity against human HOP62 cells assessed as cellular growth at 10 uM by SRB assay
UACC-62 = assay: Cytotoxicity against human UACC62 cells assessed as cellular growth at 10 uM by SRB assay
NCI-H322M = assay: Cytotoxicity against human NCI-H322M cells assessed as cellular growth at 10 uM by SRB assay
HCC 2998 = assay: Cytotoxicity against human HCC2998 cells assessed as cellular growth at 10 uM by SRB assay
MDA-MB-468 = assay: Cytotoxicity against human MDA-MB-468 cells assessed as cellular growth at 10 uM by SRB assay
CAKI-1 = assay: Cytotoxicity against human Caki1 cells assessed as cellular growth at 10 uM by SRB assay
MOLT-4 = assay: Cytotoxicity against human MOLT4 cells assessed as cellular growth at 10 uM by SRB assay
Hs-578T = assay: Cytotoxicity against human Hs578T cells assessed as cellular growth at 10 uM by SRB assay

Structure (SMILES) | Activity (SF-268) | Activity (KM12) | Activity (HCT-15) | Activity (TK-10) | Activity (SNB-19) | Activity (PC-3) | Activity [1] | Activity (RXF 393) | Activity (786-0) | Activity (HT-29) | Activity (NCI-H23) | Activity (NCI-H522) | Activity (HOP-62) | Activity (UACC-62) | Activity (NCI-H322M) | Activity (HCC 2998) | Activity (MDA-MB-468) | Activity (CAKI-1) | Activity (MOLT-4) | Activity (Hs-578T)
Cc1cc(C)c(NC(=O)c2sc3nc4c(cc3c2N)C(=O)CC(C)(C)C4)c(C)c1 | 115.09% | 112.78% | 96.97% | 97.91% | 122.53% | 87.69% | 95.48% | 105.64% | 103.33% | 96.21% | 94.31% | 100.45% | 111.49% | 96.9% | 115.34% | 105.78% | 85.24% | 82.45% | 100.05% | 108.69%
CC1(C)CC(=O)c2cc3c(N)c(C(=O)NCc4ccccc4)sc3nc2C1 | 102.72% | 105.75% | 100.56% | 106.71% | 108.68% | 95.51% | 93.37% | 93.07% | 109.38% | 106.09% | 97.31% | 92.67% | 95.84% | 102.76% | 101.83% | 101.88% | 93.1% | 110.35% | 124.23% | 123.14%
Cc1c(OCC(=O)c2ccccc2)ccc2c1oc(=O)c1ccccc12 | 100.71% | 97.66% | 107.13% | 110% | 101.61% | 90% | 100.54% | 116.6% | 104.87% | 100.17% | 109.71% | 110.46% | 105.3% | 98.05% | 115.03% | 117.13% | 62.01% | 99.74% | 90.5% | 103.5%
O=C(NCCc1ccccc1)c1[nH]c2ccccc2c1Cl | 92.71% | 72.97% | 86.01% | 154.81% | 99.04% | 70.3% | 87.28% | 103.44% | 102.69% | 100.49% | 84.26% | 96.12% | 86.43% | 84.19% | 98.86% | 101.44% | 64.9% | 78.12% | 70.04% | 97.21%
O=C(NCCc1ccc(Cl)cc1)c1[nH]c2ccccc2c1Cl | 97.34% | 94.49% | 101.72% | 160.82% | 98.39% | 88.9% | 100.24% | 113.7% | 106.07% | 100.35% | 92.75% | 101.96% | 85.04% | 81.86% | 106.64% | 102.32% | 108.58% | 96.12% | 77.08% | 94.53%
O=C(NCc1ccc(Cl)cc1)c1[nH]c2ccccc2c1Cl | 105.1% | 95.16% | 103.64% | 163.4% | 108.55% | 87.3% | 95.94% | 104.01% | 106.78% | 108.03% | 95.58% | 103.35% | 101.61% | 96.15% | 113.2% | 104.03% | 106.81% | 91.63% | 88.19% | 100.36%
Cc1ccc(CNC(=O)c2[nH]c3ccccc3c2Cl)cc1 | 86.83% | 89.46% | 106.3% | 124.52% | 105.35% | 93.19% | 92.34% | 109.98% | 102.13% | 100.16% | 95.25% | 106.22% | 90.94% | 100.21% | 111.04% | 101.22% | 106.86% | 90.46% | 91.47% | 95.86%
COc1ccc(NC(=O)c2sc3nc4c(cc3c2N)C(=O)CCC4)cc1 | 109.11% | 105.15% | 100.8% | 103.14% | 116.74% | 99.67% | 103.46% | 101.13% | 100.45% | 108.88% | 96.26% | 100.22% | 112.48% | 110.45% | 57.79% | 94.7% | 87.19% | 97.06% | 115.9% | 135.57%
N#Cc1ccc(NC(=O)c2sc3nc4c(cc3c2N)C(=O)CCC4)cc1 | 102.29% | 101.12% | 100.78% | 65.94% | 101.84% | 106.64% | 105.72% | 119.14% | 97.81% | 84.91% | 106.13% | 102.85% | 100.94% | 99.27% | 102.55% | 99.15% | 97.58% | 93.27% | 114.77% | 110.8%
CC1(C)CC(=O)c2cc3c(N)c(C(=O)Nc4ccc(Cl)cc4)sc3nc2C1 | 124.88% | 116.67% | 107.55% | 95.21% | 113.58% | 104.63% | 113.97% | 116.26% | 98.68% | 96.43% | 104.98% | 95.83% | 108.35% | 105.25% | 113.55% | 116.11% | 109.5% | 134.14% | 104% | 108.83%
CC1(C)CC(=O)c2cc3c(N)c(C(=O)Nc4ccccc4Cl)sc3nc2C1 | 122.6% | 117.4% | 98.89% | 106.14% | 106.42% | 105.8% | 115.33% | 117.18% | 102.03% | 105.6% | 108.01% | 102.8% | 116.65% | 100.17% | 131.48% | 107.92% | 110.28% | 132.4% | 104.6% | 112.91%
Nc1c(C(=O)Nc2ccc(Cl)c(Cl)c2)sc2nc(-c3cccs3)ccc12 | 85.77% | 99.94% | 92.1% | 87.49% | 95.32% | 85.43% | 75.02% | 92.71% | 88.45% | 87.42% | 68.82% | 81.53% | 100.28% | 79.48% | 95.09% | 98.35% | 19.37% | 95.41% | 83.49% | 129.34%
Cc1ccc(NC(=O)c2sc3nc(-c4cccs4)ccc3c2N)cc1C | 107.88% | 106.51% | 109.09% | 87% | 111.2% | 101.43% | 102.93% | 123.31% | 105.46% | 94.6% | 111.92% | 100.77% | 103.01% | 89.05% | 123.82% | 105.35% | 44.79% | 131.91% | 80.3% | 110.72%
O=C(NCCc1ccccc1)c1cc2cccc([N+](=O)[O-])c2[nH]1 | 106.93% | 106.02% | 86.79% | 102.94% | 97.53% | 77.13% | 97.02% | 105.34% | 105.28% | 99.19% | 92.74% | 84.92% | 90.84% | 71.51% | 115.94% | 105.66% | 90.5% | 87.57% | 91.34% | 111.09%
